One molecule from US20070191402A1, “Method of searching substrate having antidiabetic activity” (KYOWA HAKKO KOGYO CO., LTD., priority 2002, published 2007) can be followed below.

One experiment deals with T1, His-p31 protein (Mus musculus, UniProt Q99LB2).
T1 construct: a gene part encoding the full-length p31 protein was prepared by polymerase chain reaction (PCR); made in house; host or cells: Escherichia coli BL21 / pET-14b-p31
T1 sequence (Q99LB2 20-279 limits assumed): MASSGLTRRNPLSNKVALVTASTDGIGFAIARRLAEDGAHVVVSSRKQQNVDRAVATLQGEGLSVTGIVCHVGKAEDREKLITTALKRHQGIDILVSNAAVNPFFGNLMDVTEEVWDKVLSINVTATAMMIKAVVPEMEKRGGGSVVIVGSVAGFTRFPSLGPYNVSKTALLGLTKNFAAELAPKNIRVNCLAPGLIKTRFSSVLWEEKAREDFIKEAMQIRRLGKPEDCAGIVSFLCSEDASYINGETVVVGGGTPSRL
Put plainly: Enzyme activity inhibition of His-p31 protein (NADPH decrease, p-chlorobenzaldehyde). The conditions noted are these: p-chlorobenzaldehyde 250 μmol/l, NADPH 5 μmol/l, 37° C., absorbance at 340 nm. The class given is biochemical. As for the experimental part: NADPH was added to 1 ml of a solution of 10 mmol/Tris-HCl, 100 mmol/l NaCl and 2 mmol/l EDTA, pH 7.4 containing the His-p31 protein prepared in Example 12 at 1 μg/ml and p-chlorobenzaldehyde at 250 μmol/l to give a final concentration of 5 μmol/l and incubated at 37° C. Then, the NADPH decrease following the decomposition of p-chlorobenzaldehyde in the presence or absence of a tested substance was detected at the absorbance at 340 nm.

The target of another experiment is T2, p31 protein (Mus musculus, UniProt Q99LB2).
T2 construct: endogenous in cells; host or cells: MIN6 (murine pancreatic beta cell line), digitonin-solubilized membrane fraction
T2 sequence (Q99LB2 20-279 limits assumed): T1 sequence (Q99LB2 20-279 limits assumed)
Put plainly: Inhibition of binding of p31 protein from MIN6 solubilized membrane fraction to Compound 155-immobilized particle (SDS-PAGE). The conditions noted are these: 500 μmol/l tested substance, band on SDS-PAGE. Here is the method:
The solubilized membrane fraction of MIN6 as prepared in Example 12 was 10-fold diluted with the buffer B. The compound represented by Compound No. 16 (hereinafter referred to as “Compound 16”) at 500 μmol/l was added to 1 ml of the resulting dilution and gently stirred at 4° C. for 2 hours. As a control, the solubilized membrane fraction of MIN6 without addition of the Compound 16 was 10-fold diluted with buffer C [20 mmol/l HEPES, pH 7.4, 2 mmol/l EDTA, 150 mmol/l NaCl, 1% digitonin, 1 mmol/l PMSF, 1 μg/ml aprotinin], and 1 ml of the resulting dilution was gently stirred at 4° C. for 2 hours. Then, a particle immobilizing a compound represented by Compound No. 155 (hereinafter referred to as “Compound 155-immobilized particle”) as prepared in Example 8 was added to the solubilized membrane fraction solution with addition of the Compound 16 and the solubilized membrane fraction solution without addition of any tested substance and gently stirred at 4° C. for 30 minutes. Subsequently, the resulting solutions were centrifuged (12,000 rpm, one minute, 4° C.) to precipitate the particle to thereby remove the supernatants. Then, 750 μl of the buffer C was added and stirred for 3 seconds, followed by centrifugation (12,000 rpm, one minute, 4° C.), to precipitate the particle to remove the supernatant. Then, 750 μl of buffer D [20 mmol/l HEPES, pH 7.4, 2 mmol/l EDTA] was added and stirred for 3 seconds, followed by centrifugation (12,000 rpm, one minute, 4° C.), to precipitate the particle to remove the supernatant. Subsequently, 30 μl of an SDS-polyacrylamide gel electrophoresis sample buffer containing β-mercaptoethanol was added to solubilize the protein binding to Compound 155-immobilized particle, followed by SDS-polyacrylamide gel electrophoresis. Through the purification from the cell extract solution by adding Compound 16 via Compound 155-immobilized particle, p31 protein in which its specific binding to Compound 155-immobilized particle was inhibited by the compound represented by Compound No. 16 was found. […]

For the next experiment, the system named is MIN6 cell. Nature of the experiment: Insulin secretion test using MIN6 cell. The class given is cell-based, murine. The conditions noted are these: MIN6 cell; glucose 14.5 mmol/l or 8.4 mmol/l. Here is the method:
Culturing MIN6 cell and testing insulin secretion using MIN6 cell were carried out according to the method described in Diabetorogia, 36, 1139-1145 (1993).
In other words, the influence of a compound on the insulin secretion activity in the presence of 14.5 mmol/l glucose was assessed by assaying the amount of insulin in the cell culture supernatant collected as follows.
The MIN6 cell cultured in a 24-well plate was washed twice with 1 ml of buffer A [119 mmol/l NaCl, 4.74 mmol/l KCl, 2.54 mmol/l CaCl2, 1.19 mmol/l MgSO4, 1.19 mmol/l KH2PO4, 10 mmol/l 2-[4-(2-hydroxylethyl)-1-piperadinyl]ethanesulfonic acid, 0.1% BSA, pH 7.3] containing 2 mmol/l glucose. Subsequently, the resulting cell was incubated in 1 ml of the buffer A containing 2 mmol/l glucose at 37° C. for 45 minutes. The culture supernatant was exchanged with the buffer A (1 ml) containing test compounds of various concentrations and 8.4 mmol/l glucose and incubated at 37° C. for 45 minutes to collect the culture supernatant.
Antibody-reactive insulin secreted in the culture supernatant was assayed by radioimmunoassay [Methods in Investigative and Diagnostic Endocrinology, Vol. 2A, 2B, North-Holland Publishing Co., Amsterdam (1973)] after the culture supernatant was diluted with phosphate buffer containing 1% BSA, 0.1% Tween 20, 0.12% EDTA 2Na, and 0.1% sodium azide. A standard curve was prepared by using human insulin as the standard substance, and individual insulin values were calculated on the basis of the curve.

For `CCCN1C(=O)N2C[C@@H](Cc3ccccc3)N=C2c2[nH]c(C3CCCC3)nc21` [compound 16], on His-p31 protein, the “enzyme activity inhibition of the His-p31 protein” value was “strongly inhibited the activity of the protein”. Also, the “inhibition of the binding of the p31 protein to the Compound 155-immobilized particle” value is on record as “inhibits the binding of the p31 protein” on p31 protein and “inhibited” on p31 protein (listed as Compound No. 16). The “Insulin secretory activity (%)” value in the experiment with MIN6 cell worked out at 83.2%.
